Test results taken from ChEMBL document CHEMBL3124915, “One-step semisynthesis of oleacein and the determination as a 5-lipoxygenase inhibitor” (J Nat Prod, 2014).

How the values were obtained:
[1] = target: T1, Polyunsaturated fatty acid 5-lipoxygenase (Homo sapiens) (UniProt P09917); assay: Inhibition of human recombinant 5-lipoxygenase expressed in Escherichia coli Bl21 (DE3) using arachidonic acid as substrate preincubated at 10 uM for 10 mins before substrate addition measured after 10 mins by HPLC analysis
T1 sequence (whole entry): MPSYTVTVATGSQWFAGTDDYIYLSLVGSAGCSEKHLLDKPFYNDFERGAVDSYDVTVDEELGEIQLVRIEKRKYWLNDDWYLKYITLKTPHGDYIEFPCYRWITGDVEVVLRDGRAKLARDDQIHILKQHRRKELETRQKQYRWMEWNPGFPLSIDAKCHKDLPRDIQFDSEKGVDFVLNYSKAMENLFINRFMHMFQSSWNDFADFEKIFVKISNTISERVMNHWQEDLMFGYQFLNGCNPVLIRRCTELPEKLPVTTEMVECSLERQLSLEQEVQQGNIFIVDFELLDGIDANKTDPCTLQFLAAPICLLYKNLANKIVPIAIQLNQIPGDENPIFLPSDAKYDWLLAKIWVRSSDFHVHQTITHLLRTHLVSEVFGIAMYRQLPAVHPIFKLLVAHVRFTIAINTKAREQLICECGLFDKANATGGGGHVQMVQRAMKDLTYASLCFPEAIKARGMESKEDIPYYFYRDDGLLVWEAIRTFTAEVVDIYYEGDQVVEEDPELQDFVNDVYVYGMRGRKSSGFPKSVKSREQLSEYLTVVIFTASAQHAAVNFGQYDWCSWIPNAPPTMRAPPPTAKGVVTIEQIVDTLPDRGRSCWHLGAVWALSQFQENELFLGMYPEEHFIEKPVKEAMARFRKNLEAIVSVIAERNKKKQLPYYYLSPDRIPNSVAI

[2] = target: T2, Polyunsaturated fatty acid 5-lipoxygenase (Homo sapiens, UniProt P09917); assay: Inhibition of human recombinant 5-lipoxygenase using arachidonic acid as substrate preincubated for 10 mins before substrate addition measured after 10 mins by HPLC analysis
T2 sequence (P09917 whole entry): T1 sequence (whole entry)

Row | Structure (SMILES) | inhibition [1] | IC50 [2]
1 | OCCc1ccc(O)cc1 | 20% | –
2 | C/C=C1/[C@H](O[C@@H]2O[C@H](CO)[C@@H](O)[C@H](O)[C@H]2O)OC=C(C(=O)OC)[C@H]1CC(=O)OCCc1ccc(O)c(O)c1 | 35% | –
3 | OCCc1ccc(O)c(O)c1 [HYDROXYTYROSOL] | 48% | 13 µM
4 | C/C=C(/C=O)[C@@H](CC=O)CC(=O)OCCc1ccc(O)c(O)c1 | 90% | 2 µM
5 | C/C=C(/C=O)[C@@H](CC=O)CC(=O)OCCc1ccc(O)cc1 | 48% | –
